Experiments:
[1] = tested on: release of arachidonic acid; details: cited from earlier work
[2] = tested on: flies expressing fragile X premutation rCGG repeats (elav-GAL4/+; UAS-CGG90-EGFP/+); assay: Chemical screen / viability assay: rescue of lethality caused by neuronal expression of fragile X premutation rCGG90 repeats; type: in vivo, Drosophila; details: for recovery of dFmr1 CGG90 mutant flies: 40 microM of compound in the food, 0% on food alone
Source text: In particular, embodiments of the present disclosure include methods of screening compounds using a drosophila (fruit fly) based compound screen to identify drug candidates for the treatment of the fragile X-associated tremor/ataxia syndrome or other neurodegenerative disorders. […] A fly line of UAS-CGG90-EGFP transgene balanced with Cyo balancer carrying hs-hid transgene was generated. Upon heat shock, the expression of hid was activated, which led to cell death and lethality in the CGG90 dFmr1 premutation fly embryos.
The mutant embryos were placed into an appropriate container (e.g., a 96-well container) containing a food with or without a compound from a library of drugs candidates. 5 μM and 40 μM of individual compounds from a library of 2,000 FDA approved drugs and natural products (The Spectrum Collection™) were screened. Vials were then kept at 25° C. for 10 to 15 days to score for viability. The efficacy of the drug candidate was determined by scoring the number of pupae formation or the emergence of adult flies after a certain time frame. Embodiments of the present disclosure provide a screen for compounds that directly and indirectly regulate dFmr1 rCGG repeat mediated toxicity and rescue mutant flies from heat shock induced lethality. Additional details regarding the active compositions and disorders are described in the Examples below.
A Drosophila disease model of FXTAS and provided experimental evidence that fragile X premutation rCGG repeats alone are sufficient to cause neurodegeneration in a repeat-dosage manner. See Jin et al., Neuron, 2003, 39:739-747. […] Lethality occurs primarily during embryonic development before larval formation. Taking advantage of this lethality, a high-throughput strategy was designed to screen chemical libraries for small molecules relevant to FXTAS. the UAS-CGG90-EGFP transgene was balanced with a chromosome carrying a curly wing (Cyo) marker recombined with a heat shock-inducible apoptotic hid (hs-hid) transgene (w1118, UAS-CGG90-EGFP/TM2 Cyo:hs-hid). Next, the viability of adult progeny was tested using the Drosophila GAL4/UAS system. crosses of UAS-CGG90-EGFP/TM2 Cyo:hs-hid were performed with homozygous pan-neuronal elav-Gal4 driver. There was an absence of heterozygous non-Cyo adult progeny (elav-GAL4/+; UAS-CGG90-EGFP/+), which confirmed that rCGG90 repeat expression in neurons leads to lethality. The only living progenies would carry elav-GAL4/+; +/TM2 Cyo:hs-hid. Furthermore, upon heat shock, the progenies carrying elav-GAL4/+; +/TM2 Cyo:hs-hid also died, because the expression of hid leads to cell death and lethality at embryonic stages that are otherwise viable.
Since the rescue of the lethality was an easily scored phenotype, one is able to use this assay to conduct a chemical screen to identify the small molecules that can improve/restore the viability of the flies expressing fragile X premutation rCGG repeats. As depicted in schematic representation (FIG. 1A), crosses between elav-GAL4 and UAS-CGG90-EGFP/TM2 Cyo:hs-hid were raised as well as control flies into food supplemented with 40 μm of individual unique compounds from a library of 2000 US Food and Drug Administration (FDA)-approved drugs and natural products (The Spectrum Collection, MicroSource Discovery Systems, Inc.). […]

dFmr1 CGG90 mutant flies = assay: Locomotion assay (Drosophila Activity Monitor) in flies expressing rCGG90 repeats (UAS-CGG90-EGFP/nervana-GAL4); type: in vivo; details: for percentage of normal locomotion activity in dFmr1 CGG90 mutant flies: compound-treated flies, 50% without treatment; for effect on locomotion deficits caused by fragile X premutation rCGG repeats (in words): flies fed food containing the compound, mean locomotor activity over 7 days
Method: FIG. 2A illustrates the identification of small molecules that can ameliorate the locomotion deficits caused by fragile X premutation rCGG repeats. Nervana-GAL4 driver and UAS-CGG90-EGFP/Cyo were crossed to produce progeny embryos on food supplemented with or without selected compounds as indicated. Adult progeny of genotype UAS-CGG90-EGFP/nervana were selected and 32 female virgins 48 h old were subsequently monitored for locomotor activity continuously for several weeks. The locomotion of 32 flies that were fed with fly food containing the compound each time were simultaneously monitored.
To further validate these compounds, a secondary behavioral assay was developed. In this assay, UAS-CGG90-EGFP transgenic flies were crossed with nervana-GAL4, which could drive the expression of fragile X rCGG repeats in CNS, albeit weakly, allowing us to analyze adult flies for locomotion deficits. The expression of rCGG repeats leads to locomotion defects (FIG. 2A). […] The progeny flies (UAS-CGG90-EGFP/nervana-GAL4) were collected to monitor locomotion. To continuously monitor the locomotion for a given fly, a Drosophila Activity Monitor (DAM) system was established for this purpose. See Pfeiffenberger et al., Locomotor activity level monitoring using the Drosophila Activity Monitoring (DAM) System. Cold Spring Harb. Protoc. 2010.
For each individual compound, the locomotion of 32 flies were simultaneously monitored that were fed with fly food containing the compound each time. The data were collected and analyzed for locomotor activity (FIG. 2B). Each drug treatment was repeated at least three times.

CCN(CC)CCCC(C)Nc1c2ccc(Cl)cc2nc2ccc(OC)cc12 (stereo not shown) [quinacrine]
release of arachidonic acid [1]: blocked

CC1(C)O[C@@H]2C[C@H]3[C@@H]4C[C@H](F)C5=CC(=O)C=C[C@]5(C)[C@@]4(F)[C@@H](O)C[C@]3(C)[C@]2(C(=O)CO)O1 [fluocilone acetonide]
recovery of dFmr1 CGG90 mutant flies [2]: 7.5%
suppression of lethality caused by fragile X premutation rCGG repeats (in words) ([2]; 40 μm compound in food, heat shock at day 2, scored after 10-15 days): suppress both lethality and locomotion deficits
percentage of normal locomotion activity in dFmr1 CGG90 mutant flies (dFmr1 CGG90 mutant flies): 99%
effect on locomotion deficits caused by fragile X premutation rCGG repeats (in words) (dFmr1 CGG90 mutant flies): significant suppression of the locomotion activity deficit
effect on locomotion deficits caused by fragile X premutation rCGG repeats (in words) (dFmr1 CGG90 mutant flies; listed as Fluocinolone acetonide): significantly ameliorate the locomotion defects
effect on locomotion deficits caused by fragile X premutation rCGG repeats (in words) (dFmr1 CGG90 mutant flies; listed as fluocinolone acetonide): suppress both lethality and locomotion deficits

Cc1cccc(C)c1N=C1NCCCS1 [xylaxine]
recovery of dFmr1 CGG90 mutant flies [2]: 5%
percentage of normal locomotion activity in dFmr1 CGG90 mutant flies (dFmr1 CGG90 mutant flies): 80%
effect on locomotion deficits caused by fragile X premutation rCGG repeats (in words) (dFmr1 CGG90 mutant flies): significant suppression of the locomotion activity deficit
effect on locomotion deficits caused by fragile X premutation rCGG repeats (in words) (dFmr1 CGG90 mutant flies; listed as xylazine): significantly ameliorate the locomotion defects

C[C@@H]1C[C@H]2[C@@H]3CCC4=CC(=O)C=C[C@]4(C)[C@@]3(F)[C@@H](O)C[C@]2(C)[C@@]1(O)C(=O)CO [dexamethasone]
recovery of dFmr1 CGG90 mutant flies [2]: 5%
percentage of normal locomotion activity in dFmr1 CGG90 mutant flies (dFmr1 CGG90 mutant flies): 90%

COc1ccc(C(=O)/C=C/c2ccccc2)cc1 [4′-methoxy chalcone]
recovery of dFmr1 CGG90 mutant flies [2]: 3%
percentage of normal locomotion activity in dFmr1 CGG90 mutant flies (dFmr1 CGG90 mutant flies): 75%
effect on locomotion deficits caused by fragile X premutation rCGG repeats (in words) (dFmr1 CGG90 mutant flies): significant suppression of the locomotion activity deficit
